# Literature values in patent US11007501B2, “Reduced permeability microcapsules” (Trucapsol LLC, priority 2018, dated 2021).
row,Octanol/water Partition Coefficient (logP),Substance
1,2.11,Violiff
2,1.3,Nonalactone
